This note sets out measurements from US8911715B2, “L-menthyl-N-(2-hydroxyphenyl)carbamate” (Symrise AG, priority 2008, dated 2014).

The subject of one test is Staphylococcus aureus. The test can be described thus: MIC determination, series dilution test (microtiter plate) / agar dilution method. The format is cell-based. The conditions noted are these: ATCC6538; Staphylococcus aureus ATCC 6538; 16 hours incubation, clouding at 620 nm. The procedure:
(§1) The evidence of the antimicrobial action against body perspiration odor bacteria of the substances synthesized according to the examples was implemented with the aid of the agar dilution method according to DIN 58 940/ICS and DIN 58 944/ICS. Petri dishes of 5.5 cm in diameter were filled with 8.7 ml freshly produced Mueller-Hinton-agar or Wilkins-Chalgren-agar bouillon kept liquid at 50° C., supplemented with 10 g agar-agar/liter) to which the various concentrations of the thinned samples were added in 3.3% by volume=0.3 ml.
(§2) 2.6 ml of the 3.3% samples were diluted with ethanol (96%). By continuous 2:1 dilution with ethanol (96%) the further test concentrations of the respective series of dilution, which were placed in the form of geometric rows, were produced.
(§3) By further dilution with the test agar (0.3 ml sample or corresponding dilutions+8.7 ml agar), 30 times lower end concentrations were achieved (corresponds to a starting concentration of 1,100 ppm in each case). The concentrations disclosed below relate to the pure substance and are converted into ppm. […]
(§4) All the test germ suspensions were diluted again with sterile bouillon 1:10 and the germ count thereof determined in the surface method per spiralometer (results: see Table 1).
(§5) The lowest active ingredient concentration was regarded as the MIC (minimal inhibition concentration), at which no growth is macroscopically present. Minimal, hardly visible growth or a few small individual colonies were evaluated as inhibition.
(§6) The minimum inhibition concentration (MIC) of the compound according to the invention, was determined against various cosmetically relevant germs in the series dilution test (H. Brandis, G. Pulverer: Lehrbuch der Medizinischen Mikrobiologie, 6th revised edition, Gustav Fischer Verlag Stuttgart, 1988; page 200 et seq.). The test was transferred to the microtiter plate format and the concentration was determined as the MIC value, in which after 16 hours of incubation, at the wavelength of 620 nm, no significant rise in the clouding was observed relative to the controls.

Another test concerns Corynebacterium xerosis. Described as above. The format is cell-based. The procedure:
as §1, §2, §3, §4, §5, §6

Test [1] can be described thus: ABTS assay, cell-free in vitro test of antioxidant capacity. The format is biochemical. More on the design: Mean antioxidant capacity (AOX): unit not given here. Particulars: for IC50: ABTS decoloration at 734 nm, read-out: IC50 (antioxidant concentration in which 50% of the cationic radicals are reduced); for IC50 / Mean antioxidant capacity (AOX): mean of two independent tests. An excerpt: In order to check to what extent L-menthyl-N-(2-hydroxyphenyl)carbamate also has antioxidant potential, the substance was investigated with the aid of the ABTS assay.
The ABTS assay is a cell-free in vitro test for evaluating the antioxidant capacity (literature: Re R, Pellegrini N, Proteggente A, Pannala A, Yang M, Rice-Evans C. 1999. “Antioxidant activity applying an improved ABTS radical cation decolorization assay”; Free Radic. Bio. Med. 26: 1231-7). The assay uses the inherent color of a solution produced with the cationic radical 2,2′-azinobis(3-ethylbenzothiazoline 6-sulfonic acid) (ABTS+) and potassium persulfate, which solution is decolored by the addition of antioxidants (reduction of the cationic radical). This decoloration can be measured photometrically at 734 nm.
The test is carried out in 96-well microtiter plates. The antioxidant capacity is expressed in IC50 values (antioxidant concentration in which 50% of the cationic radicals are reduced). All the ABTS test results result from two independent tests and are shown as mean values with associated mean value deviation.

The subject of another test is Aspergillus niger. The test can be described thus: MIC determination, series dilution test (microtiter plate) / agar dilution method. It counts as cell-based. The procedure:
as §1
2.6 ml of the 3.3% samples were diluted with ethanol (96%). […]
as §4, §5
The minimum inhibition concentration (MIC) of the compound according to the invention, was determined against various cosmetically relevant germs in the series dilution test (H. Brandis, G. Pulverer: Lehrbuch der Medizinischen Mikrobiologie, 6th revised edition, Gustav Fischer Verlag Stuttgart, 1988; page 200 et seq.). […]
On the technique in general: Agar dilution tests growth on a series of plates holding different concentrations.

In brackets after ≈: the same amount, converted by molar mass.

The MIC is the least concentration at which growth counts as inhibited. With `CC(C)[C@@H]1CC[C@@H](C)C[C@H]1OC(=O)Nc1ccccc1O` [L-menthyl-N-(2-hydroxyphenyl)carbamate], the MIC against Staphylococcus aureus is 8 µg/mL (≈ 27.5 µM); in the test with Corynebacterium xerosis (ATCC7711, Corynebacterium xerosis ATCC 7711, 16 hours incubation, clouding at 620 nm), 8 µg/mL (≈ 27.5 µM); against Aspergillus niger (ATCC16404, Aspergillus niger ATCC 16404, 16 hours incubation, clouding at 620 nm), more than 1000 µg/mL. The “inhibition of the growth (in words)” value with Corynebacterium xerosis (gram-positive bacteria such as corynebacterium xerosis, very small concentrations) is on record as “clear inhibition of the growth”. Besides, the IC50 in test [1] stood at 19 µM. Further, the “antioxidant capacity compared with reference alpha-tocopherol (in words)” value in test [1] (ABTS investigations) was “comparable with the antioxidant capacity of the reference substance alpha-tocopherol”. Also, the “Mean antioxidant capacity (AOX)” value came out at 3.58 in test [1] (concentration 0.001 mM); 8.84 in test [1] (concentration 0.0025 mM); 17.50 in test [1] (concentration 0.005 mM); 63.15 in test [1] (concentration 0.025 mM); 96.56 in test [1] (concentration 0.05 mM). For the same compound, the “activity relative to mould fungi (in words)” value in the test on Aspergillus niger (mould fungi such as Aspergillus niger) is “inactive”.

As to `Cc1c(C)c2c(c(C)c1O)CC[C@@](C)(CCC[C@H](C)CCC[C@H](C)CCCC(C)C)O2` [alpha-tocopherol, reference compound], the IC50 in test [1] was 25 µM. The “Mean antioxidant capacity (AOX)” value in test [1] (concentration 0.001 mM) was 0.56; in test [1] (concentration 0.0025 mM), 4.16; in test [1] (concentration 0.005 mM), 10.83; in test [1] (concentration 0.025 mM) it was 51.38; in test [1] (concentration 0.05 mM) it was 94.88.
